Source: patent publication US20050101595A1, “N-containing cycloalkyl-substituted amino-thiazole derivatives and pharmaceutical compositions for inhibiting cell proliferation and methods for their use” (PFIZER INC., priority 2003, published 2005)
Like-named read-outs stand apart in the source and are kept apart here.

Assays:
CDK2/Cyclin A = CDK2/Cyclin A (Homo sapiens, UniProt P24941); assay: Inhibition of CDK2/Cyclin A Retinoblastoma Kinase Activity; format: biochemical; conditions: for CDK2 % Inhibition At 0.03 μM: Table 2; for Ki: apparent Ki, CDK2/proteolyzed cyclin A, Rb fragment substrate, 25 μM ATP
Summary of the method: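 CDK2 (10 or 19 nM), insect-cell expressed, gel-filtration purified with truncated cyclin A; Rb fragment substrate; 25 μM ATP; 10 mM HEPES pH 7.4, 10 mM MgCl2; 30° C, 60 or 75 min; EDTA stop; phosphocellulose/nitrocellulose capture, phosphorimager. % inhibition vs DMSO control, no-enzyme background subtracted.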

[1] = target: human CDK4 and genetically truncated (1-264) cyclin D3 (Homo sapiens, UniProt P11802); assay: Inhibition of CDK4/Cyclin D Retinoblastoma Kinase Activity; format: biochemical; conditions: for Ki: apparent Ki, CDK4/truncated cyclin D3, Rb fragment substrate, 25 μM ATP
Summary of the method: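 The enzyme complex (5 nM), expressed in co-infected insect cells, was incubated with recombinant Rb fragment, 25 μM radiolabelled ATP and 2% DMSO at 30 °C. Reactions were stopped with EDTA after 20 minutes, or 60 minutes for tight-binding inhibitors. Apparent Ki values came from competitive inhibition fits.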

HCT-116 cell line = assay: Inhibition of cell growth, tetrazolium salt (MTT) assay; format: cell-based; conditions: for HCT-116 % Inhibition at 0.25 μM: 0.25 μM compound; for IC50: Homo sapiens, HCT-116, 120 h, MTT, three to five days, read-out: HCT-116 IC50
Summary of the method: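 McCoy's 5A cultures; 4 h pre-incubation; compound dilutions in 0.5% v/v DMSO; 3–5 d, 37° C, 5% CO2; MTT 0.2 mg/mL final, 4 h; formazan dissolved in DMSO, A540; vs 0.5% DMSO vehicle.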

[2] = 0.1 μM compound, HCT-116, Table 4
[3] = 0.1 μM compound, HCT-116, Table 3

Sequence of human CDK4 and genetically truncated (1-264) cyclin D3 (P11802 whole entry, the tested form may be a part): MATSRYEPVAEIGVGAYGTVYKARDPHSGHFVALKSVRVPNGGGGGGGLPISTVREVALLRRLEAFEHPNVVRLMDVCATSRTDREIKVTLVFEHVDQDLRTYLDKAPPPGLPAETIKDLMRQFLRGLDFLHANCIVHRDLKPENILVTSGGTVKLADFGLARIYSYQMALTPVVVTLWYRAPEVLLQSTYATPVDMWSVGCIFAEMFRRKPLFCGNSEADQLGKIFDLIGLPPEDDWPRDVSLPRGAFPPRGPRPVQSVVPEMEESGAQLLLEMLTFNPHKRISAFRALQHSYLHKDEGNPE
Sequence of human CDK4 and genetically truncated (1-264) cyclin D3 (P30281 1-264 partner): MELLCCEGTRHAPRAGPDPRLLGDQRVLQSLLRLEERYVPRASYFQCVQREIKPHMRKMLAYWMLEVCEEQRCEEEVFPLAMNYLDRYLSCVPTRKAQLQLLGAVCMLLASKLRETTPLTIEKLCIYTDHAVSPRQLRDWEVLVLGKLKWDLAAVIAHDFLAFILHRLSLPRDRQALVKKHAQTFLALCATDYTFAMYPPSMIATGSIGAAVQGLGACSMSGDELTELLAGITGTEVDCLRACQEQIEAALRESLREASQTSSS

## Nc1nc(NC2CCN(C(=O)Nc3ccccc3Oc3ccccc3)CC2)sc1C(=O)c1c(F)cccc1F [Example O82]
CDK2/Cyclin A; 0.03 μM compound
  CDK2 % Inhibition At 0.03 μM: 34%
[1]; 0.03 μM compound, Table 2
  CDK4 % Inhibition at 0.03 μM: 4%
HCT-116 cell line; HCT-116, Table 2
  HCT-116 % Inhibition at 0.25 μM: 34%

## Cc1ccc(S(=O)(=O)CC(=O)N2CCC(Nc3nc(N)c(C(=O)c4c(F)cccc4F)s3)CC2)cc1 [Example R65]
CDK2/Cyclin A; at 0.03 μM
  CDK2 % Inhibition at 0.03 μM: 9%
[1]; at 0.03 μM
  CDK4 % Inhibition at 0.03 μM: 24%
HCT-116 cell line; HCT-116 cells, at 0.1 μM
  HCT-116 % Inhibition at 0.1 μM: 3%
HCT-116 cell line; HCT-116 cells
  HCT-116 5 Inhibition at 0.25 μM: 31

## CCCc1ccccc1NC(=O)N1CCC(Nc2nc(N)c(C(=O)c3c(F)cccc3F)s2)CC1 [Example O81]
CDK2/Cyclin A; 0.03 μM compound
  CDK2 % Inhibition At 0.03 μM: 25%
[1]; 0.03 μM compound, Table 2
  CDK4 % Inhibition at 0.03 μM: −4%
HCT-116 cell line; HCT-116, Table 2
  HCT-116 % Inhibition at 0.25 μM: 44%

## Cc1cccc(C(=O)N2CCC(Nc3nc(N)c(C(=O)c4c(F)cccc4F)s3)CC2)c1 [Example R140]
CDK2/Cyclin A; at 0.03 μM
  CDK2 % Inhibition at 0.03 μM: 38%
[1]; at 0.03 μM
  CDK4 % Inhibition at 0.03 μM: 69%
HCT-116 cell line; HCT-116 cells, at 0.1 μM
  HCT-116 % Inhibition at 0.1 μM: 32%
HCT-116 cell line; HCT-116 cells
  HCT-116 5 Inhibition at 0.25 μM: 78

## Nc1nc(NC2CCN(C(=O)c3ccc(F)cc3)CC2)sc1C(=O)c1c(F)cccc1F [Example Q26]
CDK2/Cyclin A; 0.03 μM compound, Table 4
  CDK2 % Inhibition at 0.03 μM: 18%
[1]; 0.03 μM compound, Table 4
  CDK4 % Inhibition at 0.03 μM: 60%
HCT-116 cell line; [2]
  HCT-116 % Inhibition at 0.1 μM: 3%
HCT-116 cell line; HCT-116, Table 4
  HCT-116 % Inhibition at 0.25 μM: 42%

## CCCCCCCOc1ccc(NC(=O)N2CCC(Nc3nc(N)c(C(=O)c4c(F)cccc4F)s3)CC2)cc1 [Example O83]
CDK2/Cyclin A; 0.03 μM compound
  CDK2 % Inhibition At 0.03 μM: 29%
[1]; 0.03 μM compound, Table 2
  CDK4 % Inhibition at 0.03 μM: 12%
HCT-116 cell line; HCT-116, Table 2
  HCT-116 % Inhibition at 0.25 μM: 59%

## CC1(C)CN(c2ccc(S(=O)(=O)N3CCC(Nc4nc(N)c(C(=O)c5c(F)cccc5F)s4)CC3)cn2)C=N1 [Example G21, 1-(4-Amino-2-{1-[6-(4,4-dimethyl-4,5-dihydro-imidazol-1-yl)-pyridine-3-sulfonyl]-piperidin-4-ylamino}-thiazol-5-yl)-1-(2,6-difluoro-phenyl)-methanone]
CDK2/Cyclin A
  Ki: < 1 nM
[1]
  Ki: 0.68 nM
HCT-116 cell line; first HCT-116 column (c4)
  IC50: 1900 nM
HCT-116 cell line; second HCT-116 column (c5)
  IC50: > 5000 nM

## Nc1nc(NC2CCN(S(=O)(=O)c3ccc(S(=O)(=O)c4ccccc4)s3)CC2)sc1C(=O)c1c(F)cccc1F [Example P42]
CDK2/Cyclin A; 0.03 μM compound, Table 3
  CDK2 % Inhibition at 0.03 μM: 55%
[1]; 0.03 μM compound, Table 3
  CDK4 % Inhibition at 0.03 μM: 62%
HCT-116 cell line; [3]
  HCT-116 % Inhibition at 0.1 μM: 3%
HCT-116 cell line; HCT-116, Table 3
  HCT-116 % Inhibition at 0.25 μM: 19%

## Nc1nc(NC2CCN(C(=O)NCCc3ccccc3)CC2)sc1C(=O)c1c(F)cccc1F [Example O57]
CDK2/Cyclin A; 0.03 μM compound
  CDK2 % Inhibition At 0.03 μM: 28%
[1]; 0.03 μM compound, Table 2
  CDK4 % Inhibition at 0.03 μM: −2%
HCT-116 cell line; HCT-116, Table 2
  HCT-116 % Inhibition at 0.25 μM: 41%

## Nc1nc(NC2CCN(C(=S)Oc3ccccc3)CC2)sc1C(=O)c1c(F)cccc1F [Example Q83]
CDK2/Cyclin A; 0.03 μM compound, Table 4
  CDK2 % Inhibition at 0.03 μM: 72%
[1]; 0.03 μM compound, Table 4
  CDK4 % Inhibition at 0.03 μM: 55%
HCT-116 cell line; [2]
  HCT-116 % Inhibition at 0.1 μM: 2%
HCT-116 cell line; HCT-116, Table 4
  HCT-116 % Inhibition at 0.25 μM: 25%

## Nc1nc(NC2CCN(C(=O)Nc3cccc(F)c3)CC2)sc1C(=O)c1c(F)cccc1F [Example O13]
CDK2/Cyclin A; 0.03 μM compound
  CDK2 % Inhibition At 0.03 μM: 37%
[1]; 0.03 μM compound, Table 2
  CDK4 % Inhibition at 0.03 μM: 8%
HCT-116 cell line; HCT-116, Table 2
  HCT-116 % Inhibition at 0.25 μM: 22%

## CN(C)CCSCCCS(=O)(=O)N1CCC(Nc2nc(N)c(C(=O)c3c(F)cccc3F)s2)CC1 [Example K24, 1-(4-Amino-2-{1-[3-(2-dimethylamino-ethylsulfanyl)-propane-1-sulfonyl]-piperidin-4-ylamino}-thiazol-5-yl)-1-(2,6-difluoro-phenyl)-methanone.]
CDK2/Cyclin A
  Ki: 5.9 nM
[1]
  Ki: 2 nM
HCT-116 cell line; first HCT-116 column (c4)
  IC50: > 50 nM
HCT-116 cell line; second HCT-116 column (c5)
  IC50: > 50 nM

## Nc1nc(NC2CCN(C(=O)c3ccc(C(F)(F)F)cc3)CC2)sc1C(=O)c1c(F)cccc1F [Example Q33]
CDK2/Cyclin A; 0.03 μM compound, Table 4
  CDK2 % Inhibition at 0.03 μM: 23%
[1]; 0.03 μM compound, Table 4
  CDK4 % Inhibition at 0.03 μM: 65%
HCT-116 cell line; [2]
  HCT-116 % Inhibition at 0.1 μM: 0%
HCT-116 cell line; HCT-116, Table 4
  HCT-116 % Inhibition at 0.25 μM: 16%

## Nc1nc(NC2CCN(C(=O)c3sc4ccccc4c3Cl)CC2)sc1C(=O)c1c(F)cccc1F [Example R31]
CDK2/Cyclin A; at 0.03 μM
  CDK2 % Inhibition at 0.03 μM: 57%
[1]; at 0.03 μM
  CDK4 % Inhibition at 0.03 μM: 60%
HCT-116 cell line; HCT-116 cells, at 0.1 μM
  HCT-116 % Inhibition at 0.1 μM: 0%
HCT-116 cell line; HCT-116 cells
  HCT-116 5 Inhibition at 0.25 μM: 42

## CC(=O)Nc1ccc(S(=O)(=O)N2CCC(Nc3nc(N)c(C(=O)c4c(F)cccc4F)s3)CC2)cc1 [Example P17]
CDK2/Cyclin A; 0.03 μM compound, Table 3
  CDK2 % Inhibition at 0.03 μM: 77%
[1]; 0.03 μM compound, Table 3
  CDK4 % Inhibition at 0.03 μM: 78%
HCT-116 cell line; [3]
  HCT-116 % Inhibition at 0.1 μM: 14%
HCT-116 cell line; HCT-116, Table 3
  HCT-116 % Inhibition at 0.25 μM: 36%
